Test results: patent publication US20130023496A1, “Combination Therapy Comprising A CCR5 Antagonist, A HIV-1 Protease Inhibtior and a Pharmacokinetic Enhancer” (priority 2010, published 2013)

Tests used:
CCR5-tropic HIV = experiment: Randomized controlled study of atazanavir/ritonavir QD with maraviroc or Truvada in treatment-naïve patients, 24 weeks; assay type: in vivo, human; settings: with atazanavir 300 mg QD and ritonavir 100 mg QD
Description: To ascertain whether a once daily, nucleoside-sparing regimen using a CCR5 antagonist could be safely and efficaciously administered to HIV-positive patients infected with CCR5-tropic HIV, a randomized, controlled study is being conducted.

CCR5 tropic HIV-1 virus = settings: maraviroc 300 mg QD arm, preliminary results; cited from earlier work
HIV-1 = settings: 48 weeks; atazanavir 300 mg/ritonavir 100 mg QD with Truvada versus lopinavir/r; cited from earlier work

N-{(1S)-3-[3-(3-isopropyl-5-methyl-4H-1,2,4-triazol-4-yl)-exo-8-azabicyclo[3.2.1]oct-8-yl]-1-phenylpropyl}-4, 4-difluorocyclohexanecarboxamide [maraviroc]
increase in CD4+ (CCR5-tropic HIV; after 24 weeks): 195 cells
percentage of patients who achieved less than 50 copies/mL (CCR5-tropic HIV; week 24, HIV-1 RNA): 80%
percentage of patients who achieved less than 400 copies/mL (CCR5-tropic HIV; week 24, HIV-1 RNA): 90%
non-inferiority versus the efavirenz arm (CCR5 tropic HIV-1 virus): did not meet the regulatory prespecified criteria for non-inferiority

COC(=O)N[C@H](C(=O)N[C@@H](Cc1ccccc1)[C@@H](O)CN(Cc1ccc(-c2ccccn2)cc1)NC(=O)[C@@H](NC(=O)OC)C(C)(C)C)C(C)(C)C [atazanavir]
non-inferiority primary endpoint of undetectable viral load (HIV-1 RNA less than 50 copies/mL) (HIV-1): met the non-inferiority primary endpoint
